Measurements: patent US12630547B2, “RAS protein degraders, pharmaceutical compositions thereof, and their therapeutic applications” (BioTheryX, Inc., priority 2019, dated 2026)

Key:
Assay type in all cases: cell-based
[1] = test system: MOLM-13 cells; test: Cell viability assay (CELLTITER-GLO), MOLM-13 cells; settings: Homo sapiens, MOLM-13, 72 h; Table 2; compound at 10 μM, 3 days; read-out: Effect on MOLM-13 cell viability (% DMSO)
In short: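 Viability, as % of DMSO control, was read by CellTiter-Glo luminescence after a 3-day compound exposure (single dose of 10 μM or 1 μM) at 37 °C. Cells plated at 4,000/well in RPMI 1640 with 10% FBS. Results reported as categories A <10%, B 10–<25%, C 25–<50%, D ≥50%.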

[2] = test system: H358 cells; test: Cell viability assay (CELLTITER-GLO), H358 cells; settings: Table 4; 3 days
Method: (§1) MOLM-13 cells, MV-4-11 cells, H23, and H358 cells were independently cultured in RPMI 1640 media supplemented with 10% fetal bovine serum, streptomycin and penicillin. The cells were plated in white walled 96-well plates at 4,000 cells/well. The cells were incubated in DMSO (control) or a compound for 3 days at 37° C. under 5% CO2. A CELLTITER-GLO® reagent (100 μL) was then added to each well. After a 10 min incubation with shaking, luminescence was measured using an ENVISION® multimode plate reader.
In Tables 1 and 2, each compound was tested at 10 μM; and in Table 3, each compound was tested at 1 μM. In Tables 1 to 3, the cell viability values as % DMSO are reported as “A,” “B,” “C,” or “D;” where “A” represents a % viability value of less than 10%; “B” represents a % viability value of no less than 10% and less than 25%; “C” represents a % viability value of no less than 25% and less than 50%; and “D” represents a % viability value of no less than 50%. Compound A is
(§2) IC50 values are summarized in Table 4, where “A” represents an IC50 value of no greater than 1 μM, “B” represents an IC50 value of greater than 1 μM and no greater than 5 μM, “C” represents an IC50 value of greater than 5 μM and no greater than 10 μM, and “D” represents an IC50 value of greater than 10 μM.

[3] = test system: H23 cells; test: Cell viability assay (CELLTITER-GLO), H23 cells; settings: Table 4; 3 days
Method: as §1, §2

| SMILES | viability at 10 µM [1] [%] | Inhibition of H358 cells, IC50 (class) [2] | Inhibition of H23 cells, IC50 (class) [3] |
| --- | --- | --- | --- |
| C=CC(=O)N1CCN(c2ncnc3c(F)c(-c4cc(OCCOCCOCCC(=O)NCCNc5cccc6c5CN(C5CCC(=O)NC5=O)C6=O)ccc4F)c(Cl)cc23)CC1 (stereo not drawn) [Compound 38, 3-(2-(2-(3-(4-(4-Acryloylpiperazin-1-yl)-6-chloro-8-fluoroquinazolin-7-yl)-4-fluorophenoxy)ethoxy)ethoxy)-N-(2-((2-(2,6-dioxopiperidin-3-yl)-1-oxoisoindolin-4-yl)amino)ethyl)propanamide] | ≥ 50 | D′ | D′ |
| C=CC(=O)N1CC(N2Cc3ccc(-c4cc(O)cc5ccccc45)cc3N(CCOCCOCCOCCNc3ccc4c(c3)C(=O)N(C3CCC(=O)NC3=O)C4=O)C2=O)C1 (stereo not drawn) [Compound 40, 5-((2-(2-(2-(2-(3-(1-Acryloylazetidin-3-yl)-7-(3-hydroxynaphthalen-1-yl)-2-oxo-3,4-dihydroquinazolin-1(2H)-yl)ethoxy)ethoxy)ethoxy)ethyl)amino)-2-(2,6-dioxopiperidin-3-yl)isoindoline-1,3-dione] | < 10 | B′ | B′ |
| O=C1CCC(N2Cc3c(cc(F)cc3C3CCN(CCCCCCCOc4cccc(F)c4-c4c(Cl)cc5c(N6CCN(C(=O)c7cnc[nH]7)CC6)ncnc5c4F)CC3)C2=O)C(=O)N1 (stereo not drawn) [Compound 41, 3-(4-(1-(7-(2-(4-(4-(1H-Imidazole-5-carbonyl)piperazin-1-yl)-6-chloro-8-fluoroquinazolin-7-yl)-3-fluorophenoxy)heptyl)piperidin-4-yl)-6-fluoro-1-oxoisoindolin-2-yl)piperidine-2,6-dione] | < 10 | B′ | B′ |
| CCC(=O)N1CCN(c2ncnc3c(F)c(-c4c(F)cccc4OCCOCCOCCOCCNc4cccc5c4C(=O)N(C4CCC(=O)NC4=O)C5=O)c(Cl)cc23)CC1 (stereo not drawn) [Compound 42, 4-((2-(2-(2-(2-(2-(6-Chloro-8-fluoro-4-(4-propionylpiperazin-1-yl)quinazolin-7-yl)-3-fluorophenoxy)ethoxy)ethoxy)ethoxy)ethyl)amino)-2-(2,6-dioxopiperidin-3-yl)isoindoline-1,3-dione] | ≥ 50 | D′ | D′ |
| C=C(Cl)C(=O)N1CCN(c2ncnc3c(F)c(-c4c(F)cccc4OCCCCCCCN4CCC(c5cc(F)cc6c5CN(C5CCC(=O)NC5=O)C6=O)CC4)c(Cl)cc23)CC1 (stereo not drawn) [Compound 43, 3-(4-(1-(7-(2-(6-Chloro-4-(4-(2-chloroacryloyl)piperazin-1-yl)-8-fluoroquinazolin-7-yl)-3-fluorophenoxy)heptyl)piperidin-4-yl)-6-fluoro-1-oxoisoindolin-2-yl)piperidine-2,6-dione] | < 10 | A′ | A′ |
| CCC(=O)N1CC(N2Cc3ccc(-c4cc(O)cc5ccccc45)cc3N(CCCCCCCN3CCC(c4cc(F)cc5c4CN(C4CCC(=O)NC4=O)C5=O)CC3)C2=O)C1 (stereo not drawn) [Compound 44, 3-(6-Fluoro-4-(1-(7-(7-(3-hydroxynaphthalen-1-yl)-2-oxo-3-(1-propionylazetidin-3-yl)-3,4-dihydroquinazolin-1(2H)-yl)heptyl)piperidin-4-yl)-1-oxoisoindolin-2-yl)piperidine-2,6-dione] | < 10 | C′ | B′ |
